Laboratory results: patent publication US6531464B1, “Methods for the treatment of neurodegenerative disorders using substituted phenanthridinone derivatives” (Inotek Pharmaceutical Corporation, priority 1999, dated 2003)

Legend:
Format in all cases: cell-based
PARS [1] = target: T1, PARS (Mus musculus, UniProt P11103); experiment: High glucose induced PARS activation in murine lung microvascular endothelial cells; parameters: endogenous in cells; host or cells: primary lung microvascular endothelial cells from wild-type mice; conditions: 30 mM glucose, 6 hours; PJ34 100 nM-3 μM, MnTBAP 100 μM, carboxy-PTIO 300 μM, L-NMA 3 mM, L-NAME 3 mM
Experimental: In brief, lung microvascular endothelial cells were isolated from wild-type (+/+) and PARS knockout (−/−) mice. Cells were maintained in F12/DMEM (1:1) medium supplemented with endothelial cell growth supplement (100 μg/l heparin and 10% fetal calf serum).
PARS activation was measured in endothelial cells seeded in 6 well tissue culture plates pre-coated with endothelial cell attachment factor (Sigma). Medium was replaced by regular- (see above) or FCS-free HUVEC medium containing 5 mM D-glucose 12 h before the experiment. […] After 10 min, cells were scraped, transferred into Eppendorf tubes and the reaction was stopped by trichloroacetic acid (TCA). Pellets were washed three times in 5% TCA and then solubilized in 500 μl 2% SDS/0.1 N NaOH at 37° C. Contents of the tubes were added to 7 ml ScintiSafe Plus scintillation liquid and radioactivity was measured in a liquid scintillation counter (Wallac, Gaithersburg, Md.). Activity was normalized for protein content.
Target sequence in this assay (P11103 whole entry): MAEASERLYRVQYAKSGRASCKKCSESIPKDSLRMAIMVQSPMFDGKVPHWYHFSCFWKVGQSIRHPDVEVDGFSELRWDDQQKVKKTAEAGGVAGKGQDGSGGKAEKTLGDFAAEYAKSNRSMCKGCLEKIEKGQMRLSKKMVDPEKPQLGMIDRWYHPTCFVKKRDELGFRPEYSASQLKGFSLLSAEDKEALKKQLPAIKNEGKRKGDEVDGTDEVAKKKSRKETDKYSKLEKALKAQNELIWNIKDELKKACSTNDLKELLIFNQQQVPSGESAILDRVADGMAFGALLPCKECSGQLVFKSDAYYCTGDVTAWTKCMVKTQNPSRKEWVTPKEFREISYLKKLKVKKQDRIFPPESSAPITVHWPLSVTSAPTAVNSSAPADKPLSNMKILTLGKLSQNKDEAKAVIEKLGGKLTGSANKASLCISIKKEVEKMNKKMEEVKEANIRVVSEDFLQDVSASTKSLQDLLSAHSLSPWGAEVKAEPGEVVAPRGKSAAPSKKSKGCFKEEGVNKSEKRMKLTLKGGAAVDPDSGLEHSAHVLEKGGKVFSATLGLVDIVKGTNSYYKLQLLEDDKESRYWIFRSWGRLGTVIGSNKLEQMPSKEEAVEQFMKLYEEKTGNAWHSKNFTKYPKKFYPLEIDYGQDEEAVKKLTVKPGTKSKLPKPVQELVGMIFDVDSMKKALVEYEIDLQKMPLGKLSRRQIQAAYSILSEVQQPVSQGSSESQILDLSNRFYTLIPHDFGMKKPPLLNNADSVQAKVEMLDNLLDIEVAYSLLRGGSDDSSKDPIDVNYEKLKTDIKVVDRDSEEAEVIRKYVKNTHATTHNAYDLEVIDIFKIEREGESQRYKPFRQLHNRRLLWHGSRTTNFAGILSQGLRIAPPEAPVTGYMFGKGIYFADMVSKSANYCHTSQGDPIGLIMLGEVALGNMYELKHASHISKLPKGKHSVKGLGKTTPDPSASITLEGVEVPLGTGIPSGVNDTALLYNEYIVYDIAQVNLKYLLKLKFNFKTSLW

TNF-α = experiment: LPS-stimulated J774 macrophages: TNF-α production; conditions: for production of the pro-inflammatory cytokine TNF-α (in words): J774 macrophages exposed to LPS; for EC50: Mus musculus, J774, LPS 10 μg/ml, 30 min pretreatment 0.1 to 30 μM, measured at 24 h, mean±SEM n=3-6, read-out: Inhibition of TNF-α (J774)
Excerpt: (§1) In in vitro studies, J774 macrophages were exposed to bacterial lipopolysaccharide (LPS), to induce pro-inflammatory mediator production and cytotoxicity. […] This assay (the LPS-stimulated macrophage) represents an in vitro model of an inflammatory situation. Agents that block inflammatory mediator production in this assay are expected to have anti-inflammatory or immunosuppressive effects in inflammatory or immune diseases.
(§2) The half-maximal inhibitory effect (in μM) of various PJ compounds was assessed under a variety of conditions in immunostimulated J774 macrophages and in peroxynitrite-stimulated thymocytes. Macrophages or thymocytes were first treated with a chosen PJ compound for 30 min at a concentration ranging from 0.1 to 30 μM. The cells were then immunostimulated with LPS (10 μg/ml) or treated with peroxynitrite (30 μM). MIP production in the macrophages was measured at 3 h, TNF and nitric oxide were measured at 24 h, cell viability in the macrophages were measured at 24 h. PARS activation and cell death in thymocytes were measured at 6 h. Measurements of mediator production, PARS activation and cell death were essentially as described in Németh, et al., Eur J Pharmacol 339:215-221, 1997 and Virág and Szabó, Br J Pharmacol, 126: 769-777, 1999. Results in Table 2 are shown as EC50 values (half maximal inhibition of mediator production or restoration of cell viability; in μM): [mean±SEM of n=3-6 determinations].

MIP-1α = experiment: LPS-stimulated J774 macrophages: MIP-1α production; conditions: for production of the chemokine MIP-1α (in words): J774 macrophages exposed to LPS; for EC50: Mus musculus, J774, LPS 10 μg/ml, 30 min pretreatment 0.1 to 30 μM, measured at 3 h, mean±SEM n=3-6, read-out: Inhibition of MIP-1α (J774)
Excerpt: as §1, §2

MIP-2 = experiment: LPS-stimulated J774 macrophages: MIP-2 production; conditions: for production of the chemokine MIP-2 (in words): J774 macrophages exposed to LPS; for EC50: Mus musculus, J774, LPS 10 μg/ml, 30 min pretreatment 0.1 to 30 μM, measured at 3 h, mean±SEM n=3-6, read-out: Inhibition of MIP-2 (J774)
Excerpt: as §1, §2

nitric oxide (nitrite) = experiment: LPS-stimulated J774 macrophages: nitric oxide production measured as nitrite; conditions: for production of nitric oxide, measured as nitrite (in words): J774 macrophages exposed to LPS; for EC50: Mus musculus, J774, read-out: Inhibition of Nitrite (J774)
Excerpt: as §1, §2

J774 macrophages = experiment: LPS-stimulated J774 macrophages: cell viability; conditions: for viability of the cells suppressed by LPS exposure (in words): J774 macrophages exposed to LPS; for EC50: Mus musculus, J774, LPS 10 μg/ml, 30 min pretreatment 0.1 to 30 μM, measured at 24 h, mean±SEM n=3-6, read-out: Enhancement of cell Viability (J774)
Excerpt: as §1, §2

PARS [2] = target: T1, PARS; experiment: Peroxynitrite-stimulated thymocytes: PARS activation; conditions: isolated thymocytes exposed to peroxynitrite or hydrogen peroxide
Experimental: The half-maximal inhibitory effect (in μM) of various PJ compounds was assessed under a variety of conditions in immunostimulated J774 macrophages and in peroxynitrite-stimulated thymocytes. Macrophages or thymocytes were first treated with a chosen PJ compound for 30 min at a concentration ranging from 0.1 to 30 μM. The cells were then immunostimulated with LPS (10 μg/ml) or treated with peroxynitrite (30 μM). MIP production in the macrophages was measured at 3 h, TNF and nitric oxide were measured at 24 h, cell viability in the macrophages were measured at 24 h. PARS activation and cell death in thymocytes were measured at 6 h.
Target sequence in this assay (P11103 2-1013): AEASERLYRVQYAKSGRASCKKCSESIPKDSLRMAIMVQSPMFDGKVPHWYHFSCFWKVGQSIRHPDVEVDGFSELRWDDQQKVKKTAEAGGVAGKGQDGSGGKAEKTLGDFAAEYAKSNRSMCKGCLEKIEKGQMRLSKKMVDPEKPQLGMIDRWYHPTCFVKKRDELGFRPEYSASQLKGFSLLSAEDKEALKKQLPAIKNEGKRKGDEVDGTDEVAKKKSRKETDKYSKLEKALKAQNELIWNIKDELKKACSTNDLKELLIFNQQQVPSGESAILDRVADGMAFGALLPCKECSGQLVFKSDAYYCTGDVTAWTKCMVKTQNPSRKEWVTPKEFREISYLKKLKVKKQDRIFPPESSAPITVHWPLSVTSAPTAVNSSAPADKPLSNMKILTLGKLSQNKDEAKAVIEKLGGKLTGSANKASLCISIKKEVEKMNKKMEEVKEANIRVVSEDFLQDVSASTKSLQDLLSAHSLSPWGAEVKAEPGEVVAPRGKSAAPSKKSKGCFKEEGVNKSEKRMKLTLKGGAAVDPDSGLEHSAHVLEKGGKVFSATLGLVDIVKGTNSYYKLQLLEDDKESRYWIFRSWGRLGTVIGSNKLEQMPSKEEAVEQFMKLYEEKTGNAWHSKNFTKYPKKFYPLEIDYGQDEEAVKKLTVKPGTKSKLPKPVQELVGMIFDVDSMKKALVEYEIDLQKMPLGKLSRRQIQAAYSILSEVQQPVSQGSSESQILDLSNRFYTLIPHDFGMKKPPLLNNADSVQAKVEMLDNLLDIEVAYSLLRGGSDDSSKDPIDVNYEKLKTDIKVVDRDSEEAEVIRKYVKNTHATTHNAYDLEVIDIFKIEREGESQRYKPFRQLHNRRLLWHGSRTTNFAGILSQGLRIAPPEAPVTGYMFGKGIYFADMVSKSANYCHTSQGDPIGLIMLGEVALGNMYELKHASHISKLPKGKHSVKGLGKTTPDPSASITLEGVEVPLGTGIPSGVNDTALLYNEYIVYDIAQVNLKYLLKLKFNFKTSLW

thymocytes = experiment: Peroxynitrite-stimulated thymocytes: cell viability; conditions: for EC50: Thymocyte, peroxynitrite 30 μM, 30 min pretreatment 0.1 to 30 μM, measured at 6 h, mean±SEM n=3-6, read-out: Enhancement of cell viability (thymocyte); for oxidant-induced suppression of the viability of the cells (in words): isolated thymocytes exposed to peroxynitrite or hydrogen peroxide
Experimental: as §2

[3] = LPS 10 μg/ml, 30 min pretreatment 0.1 to 30 μM, measured at 24 h, mean±SEM n=3-6

## COC(=O)[C@@H](N)CCCNC(=N)N[N+](=O)[O-] [L-NAME, N^G-nitro-L-arginine methyl ester]
PARS [1]
  high glucose induced PARP/PARS activation: significantly reduced

## CNC(=N)NCCC[C@H](N)C(=O)O [L-NMA, N^G-methyl-L-arginine]
PARS [1]
  high glucose induced PARP/PARS activation: significantly reduced

## O=C(O)c1ccc(/C2=C3\C=CC(=N3)/C(c3ccc(C(=O)O)cc3)=c3/cc/c4[n]3[Mn]([Cl])[n]3c2ccc3/C(c2ccc(C(=O)O)cc2)=C2/C=CC(=N2)\C=4c2ccc(C(=O)O)cc2)cc1 [MnTBAP]
PARS [1]
  high glucose induced PARP/PARS activation: attenuated

## O=C(CN1CCCCC1)Nc1ccc2[nH]c(=O)c3ccccc3c2c1 [PJ36]
TNF-α
  production of the pro-inflammatory cytokine TNF-α (in words): inhibited
  EC50: 11.2 ± 1.1 µM
MIP-1α
  production of the chemokine MIP-1α (in words): inhibited
  EC50: 15.2 ± 2.1 µM
MIP-2
  production of the chemokine MIP-2 (in words): inhibited
  EC50: 21.2 ± 2.7 µM
Nitric oxide (nitrite)
  production of nitric oxide, measured as nitrite (in words): inhibited
Nitric oxide (nitrite); [3]
  EC50: 25.4 ± 2.9 µM
J774 macrophages
  viability of the cells suppressed by LPS exposure (in words): restored the viability
  EC50: 20.2 ± 2.3 µM
PARS [2]
  activation of PARS (in words): inhibited
thymocytes
  EC50: 0.3 ± 0.1 µM
  oxidant-induced suppression of the viability of the cells (in words): prevented

## O=C(CN1CCOCC1)Nc1ccc2[nH]c(=O)c3ccccc3c2c1 [PJ38]
TNF-α
  production of the pro-inflammatory cytokine TNF-α (in words): inhibited
  EC50: 6.2 ± 0.42 µM
MIP-1α
  production of the chemokine MIP-1α (in words): inhibited
  EC50: 11.3 ± 1.4 µM
MIP-2
  production of the chemokine MIP-2 (in words): inhibited
  EC50: 14.9 ± 1.3 µM
Nitric oxide (nitrite)
  production of nitric oxide, measured as nitrite (in words): inhibited
Nitric oxide (nitrite); [3]
  EC50: 20.2 ± 1.5 µM
J774 macrophages
  viability of the cells suppressed by LPS exposure (in words): restored the viability
  EC50: 22.1 ± 2.7 µM
PARS [2]
  activation of PARS (in words): inhibited
thymocytes
  EC50: 0.4 ± 0.2 µM
  oxidant-induced suppression of the viability of the cells (in words): prevented

## CCN(CC)CC(=O)Nc1ccc2[nH]c(=O)c3ccccc3c2c1 [PJ44]
TNF-α
  production of the pro-inflammatory cytokine TNF-α (in words): inhibited
  EC50: 11.1 ± 0.67 µM
MIP-1α
  production of the chemokine MIP-1α (in words): inhibited
  EC50: 10.2 ± 0.95 µM
MIP-2
  production of the chemokine MIP-2 (in words): inhibited
  EC50: 22.4 ± 1.2 µM
Nitric oxide (nitrite)
  production of nitric oxide, measured as nitrite (in words): inhibited
Nitric oxide (nitrite); [3]
  Inhibition of Nitrite (J774): No effect
J774 macrophages
  viability of the cells suppressed by LPS exposure (in words): restored the viability
  EC50: 16.2 ± 1.9 µM
PARS [2]
  activation of PARS (in words): inhibited
thymocytes
  EC50: 0.2 ± 0.1 µM
  oxidant-induced suppression of the viability of the cells (in words): prevented

## CN1CCN(CC(=O)Nc2ccc3[nH]c(=O)c4ccccc4c3c2)CC1 [PJ46]
TNF-α
  production of the pro-inflammatory cytokine TNF-α (in words): inhibited
  EC50: 9.2 ± 0.88 µM
MIP-1α
  production of the chemokine MIP-1α (in words): inhibited
  EC50: > 30 µM
MIP-2
  production of the chemokine MIP-2 (in words): inhibited
  EC50: > 30 µM
Nitric oxide (nitrite)
  production of nitric oxide, measured as nitrite (in words): inhibited
Nitric oxide (nitrite); [3]
  EC50: > 30 µM
J774 macrophages
  viability of the cells suppressed by LPS exposure (in words): restored the viability
  EC50: > 30 µM
PARS [2]
  activation of PARS (in words): inhibited
thymocytes
  EC50: 1.3 ± 0.3 µM
  oxidant-induced suppression of the viability of the cells (in words): prevented

## CC1(C)N([O])C(c2ccc(C(=O)O)cc2)=[N+]([O-])C1(C)C [carboxy-PTIO]
PARS [1]
  high glucose induced PARP/PARS activation: attenuated
